Several values for one entry are separate records, joined by “and”; a condition that tells them apart may be missing. Identical values can stand only once.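 Tested at 5 concentrations; 48 h exposure; 96-well plates; endpoints linearly interpolated, else capped at highest concentration. Here, GI50 denotes the concentration required for 50% inhibition of growth. TGI: total growth inhibition.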
Columns and labels:
Test in all cases: NCI anticancer screen, dose series, 48 h
A549 NSCLC = test system: A549 NSCLC
CAKI-1 renal = test system: CAKI-1 renal
LOX IMVI melanoma = test system: LOX IMVI melanoma
MDA-MB-231 breast = test system: MDA-MB-231 breast
MDA-MB-435 = test system: MDA-MB-435
NCI-H522 lung = test system: NCI-H522 lung
NCI/ADR-RES ovarian = test system: NCI/ADR-RES ovarian
RXF 393 renal = test system: RXF 393 renal
SF-295 CNS = test system: SF-295 CNS
U251 CNS = test system: U251 CNS
UO-31 renal = test system: UO-31 renal

Row | SMILES | TGI (A549 NSCLC) | TGI (CAKI-1 renal) | TGI (LOX IMVI melanoma) | TGI (MDA-MB-231 breast) | TGI (MDA-MB-435) | TGI (NCI-H522 lung) | TGI (NCI/ADR-RES ovarian) | TGI (RXF 393 renal) | TGI (SF-295 CNS) | TGI (U251 CNS) | TGI (UO-31 renal) | GI50 (LOX IMVI melanoma) | GI50 (NCI-H522 lung) | GI50 (RXF 393 renal) | GI50 (UO-31 renal) | GI50 (A549 NSCLC) | GI50 (CAKI-1 renal)
1 | O=[N+]([O-])c1ccc2c(N=Nc3ccc4ccccc4c3O)c(O)cc(S(=O)(=O)O)c2c1 | > 100 µM | > 80.6 µM | > 90.2 µM | > 100 µM | > 100 µM | > 57.3 µM | > 90.3 µM | > 100 µM | > 85.7 µM | > 100 µM | 47.4 µM | – | – | – | – | – | –
2 | CCOC(=O)c1cc([N+](=O)[O-])cc([N+](=O)[O-])c1Sc1ncnc2nc[nH]c12 | 32.5 µM | 6.59 µM | 4.16 µM | 24.9 µM | 4.27 µM | 4.39 µM | 8.4 µM | 3.29 µM | 38.1 µM | 24.8 µM | 3.55 µM | – | – | – | – | – | –
3 | O=C1c2c(F)c(F)c(F)c(F)c2SC2=Nc3cccc4cccc(c34)N12 | 39.8 µM | 29 µM | 7.79 µM | 11.7 µM | 12.8 µM | 9.01 µM | 10.2 µM | 11.1 µM | 30.9 µM | 10.7 µM | 21.7 µM | – | – | – | – | – | –
4 | Cc1cc2nc(CC(C(F)(F)F)C(F)(F)F)oc2cc1C | 30.1 µM | 5.13 µM | 1.44 µM | 9.09 µM | 5.64 µM | 1.13 µM | > 43.3 µM | 9.73 µM | 18.6 µM | 9.41 µM | 26.2 µM | – | – | – | – | – | –
5 | COc1ccccc1[C@@H]1CCC2CC[C@@H](c3ccccc3OC)[N+]21Cc1ccccc1 (some centres not stated) | 13.1 µM | 18.8 µM | 13.2 µM | 9.83 µM | 10.5 µM | 11.5 µM | 32.3 µM | 8.53 µM | 8.57 µM | 11.2 µM | 10.6 µM | – | – | – | – | – | –
6 | NC(CS)C(=O)NCCNc1ccc(NCCNC(=O)C(N)CS)c2c1C(=O)c1c(O)ccc(O)c1C2=O (configuration not stated) | 0.191 µM | 0.566 µM and 0.104 µM | 0.205 µM and 0.165 µM | 1.62 µM | 1.86 µM | 0.421 µM and 0.127 µM | 1.03 µM | 0.554 µM and 0.455 µM | 0.276 µM and 0.0386 µM | 0.136 µM and 0.117 µM | 0.477 µM and 0.316 µM | 0.0149 µM | 0.0165 µM | 0.103 µM | 0.0598 µM | – | –
7 | COc1ccc2nc3c([N+](=O)[O-])ccc(NCCCN(C)C)c3c(N)c2c1 | 3.15 µM | 3.71 µM | 3.23 µM | 3.09 µM | 3.66 µM | 1.34 µM | 4.25 µM | 2.81 µM | 2.95 µM | 3.02 µM | 3.71 µM | – | – | – | – | – | –
8 | CC1=C(C(=O)NCCCN(CCO)CCO)CC(C(=O)NCCCN(CCO)CCO)=C(C)N1 | > 100 µM | > 100 µM | > 100 µM | > 100 µM | > 100 µM | > 100 µM | > 100 µM | > 100 µM | > 100 µM | > 100 µM | > 100 µM | – | – | – | – | – | –
9 | COC(=O)C1Cc2c([nH]c3ccccc23)-c2[nH]c3ccccc3c2CC(NC(C)=O)C(=O)N2CCCC2C(=O)N1 (configuration not stated) | > 100 µM | > 100 µM | > 100 µM | > 100 µM | > 100 µM | > 100 µM | > 100 µM | > 100 µM | > 100 µM | > 100 µM | > 100 µM | – | – | – | – | – | –
10 | O=C1C=CC(=O)[C@H]2C3C=CC(C4C3C3(Cl)C(Cl)=C(Cl)[C@]4(Cl)C3(Cl)Cl)[C@@H]12 (some centres not stated) | 16 µM | 30.2 µM | 11.7 µM | 16.7 µM | 7.02 µM | 23.1 µM | 17.4 µM | 13.8 µM | 25.2 µM | 13.3 µM | 22.1 µM | – | – | – | – | – | –
11 | COc1c(C)c(C/C=C(\C)CCCCO)c(OC)c2ccccc12 | > 100 µM | 94.9 µM | 37.6 µM | > 100 µM | 99.2 µM | 42.3 µM | > 100 µM | > 100 µM | > 100 µM | > 100 µM | > 100 µM | – | – | – | – | – | –
12 | Cc1ccc(O)cc1 (tested in a mixture with another compound) | > 100 µM | > 100 µM | > 100 µM | > 100 µM | > 100 µM | > 100 µM | > 100 µM | > 100 µM | > 100 µM | > 100 µM | > 100 µM | – | – | – | – | – | –
13 | CCOC(=O)C(NC(=O)c1ccccc1)(Nc1ccc(S(=O)(=O)Nc2ccc(OC)nn2)cc1)C(F)(F)F (configuration not stated) | > 100 µM | > 100 µM | > 100 µM | > 100 µM | > 100 µM | > 100 µM | > 100 µM | > 100 µM | > 100 µM | > 100 µM | > 100 µM | – | – | – | – | – | –
14 | O=C(c1cccnc1)N1N=C(c2ccc3c(c2)OCO3)CC1(O)c1cc(F)c(Cl)cc1Cl (configuration not stated) | > 100 µM | > 100 µM | 30.5 µM | 40.5 µM | > 100 µM | 33.8 µM | 50.4 µM | 26.1 µM | 59.4 µM | 32.9 µM | 41.3 µM | – | – | – | – | – | –
15 | CN(C)C1(c2cc3ccccc3s2)CCCCC1 | > 100 µM | > 100 µM | 60.9 µM | > 100 µM | > 100 µM | 41.7 µM | > 100 µM | 84.6 µM | > 100 µM | > 100 µM | > 100 µM | – | – | – | – | – | –
16 | COC(=O)[C@@H](NC(=O)c1ccc(CNC(=O)/C(C)=C/c2ccccc2)cc1)C(C)C | > 100 µM | > 100 µM | > 100 µM | > 100 µM | > 100 µM | > 100 µM | > 100 µM | > 100 µM | > 100 µM | > 100 µM | > 100 µM | – | – | – | – | – | –
17 | Clc1ccc(Nc2nnc(CNc3ccc(-c4nnc(Nc5ccc(Cl)cc5)o4)cc3)o2)cc1 | 30.2 µM | 33.9 µM | 20.7 µM | 25.4 µM | 30.6 µM | 37.1 µM | > 77.9 µM | 34.6 µM | 38.4 µM | 23.2 µM | 35.2 µM | – | – | – | – | – | –
18 | Nc1nc(N)c2nc(CNc3ccc(C(=O)NC(CCNC(=O)c4ccccc4C(=O)O)C(=O)O)cc3)cnc2n1 (configuration not stated) | > 100 µM | > 100 µM | > 100 µM | > 100 µM | > 100 µM | > 100 µM | > 100 µM | > 100 µM | > 100 µM | > 100 µM | > 100 µM | 0.00439 µM | – | 0.967 µM | 0.04 µM | 0.0688 µM | 0.0666 µM
19 | Cc1sc2nc3n(c(=O)c2c1C)N=C(c1ccccc1)CS3 | > 100 µM | > 100 µM | > 100 µM | > 100 µM | > 100 µM | > 100 µM | > 100 µM | > 100 µM | > 100 µM | > 100 µM | > 100 µM | – | – | – | – | – | –
20 | O=C1c2ccccc2C(=O)c2c(NCC3CO3)cccc21 (configuration not stated) | > 100 µM | 77.3 µM | 5.38 µM | > 75 µM | 20 µM | > 100 µM | 38 µM | 20.6 µM | > 100 µM | > 100 µM | 22.5 µM | – | – | – | – | – | –
21 | CN(C)C=Nc1c2c(nc3ccccc13)CCCC2 | > 100 µM | > 100 µM | > 100 µM | > 100 µM | > 100 µM | > 100 µM | > 100 µM | > 100 µM | > 100 µM | > 100 µM | > 100 µM | – | – | – | – | – | –
22 | N#Cc1c(O)c(C=O)c(=O)n2c1[nH]c1ccccc12 | > 100 µM | > 100 µM | > 100 µM | > 100 µM | > 100 µM | > 100 µM | > 100 µM | > 100 µM | > 100 µM | > 100 µM | > 100 µM | – | – | – | – | – | –
23 | C=C(C)[C@@H]1CCC2=C(CC[C@]3(C)[C@@H]([C@@H](CCC=C(C)C)C(=O)O)[C@H](O)C[C@@]23C)[C@@]1(C)CCC(=O)O | > 100 µM | > 100 µM | > 100 µM | > 100 µM | > 100 µM | > 100 µM | > 100 µM | > 100 µM | > 100 µM | > 100 µM | > 100 µM | – | – | – | – | – | –
24 | CON(C(=O)OC(C)(C)C)c1ccccc1 | > 100 µM | > 100 µM | > 100 µM | > 100 µM | > 100 µM | > 100 µM | > 100 µM | > 100 µM | > 100 µM | > 100 µM | > 100 µM | – | – | – | – | – | –
25 | CCc1n[nH]c(=O)n1N=C(c1ccccc1)c1ccccc1 | > 100 µM | > 100 µM | > 100 µM | > 100 µM | > 100 µM | > 100 µM | > 100 µM | > 100 µM | > 100 µM | > 100 µM | > 100 µM | – | – | – | – | – | –
26 | CC(=O)N1CCN(CCCCN2c3ccccc3Sc3cc(N=[N+]=[N-])ccc32)CC1 | 30 µM | 24.9 µM | 30.9 µM | 26.7 µM | 29 µM | 26.3 µM | 27.4 µM | 24.4 µM | 31.5 µM | 27.6 µM | 23.5 µM | – | – | – | – | – | –
27 | Cc1csc2c(=O)n(COCc3ccccc3)c(=O)[nH]c12 | > 100 µM | > 100 µM | > 100 µM | > 100 µM | > 100 µM | > 100 µM | > 100 µM | > 100 µM | > 100 µM | > 100 µM | > 100 µM | – | – | – | – | – | –
28 | N#CCN1CCCN(CC#N)CCN(CC#N)CCCN(CC#N)CC1 | > 100 µM | > 100 µM | 65.8 µM | > 100 µM | > 100 µM | > 100 µM | > 100 µM | > 100 µM | > 100 µM | > 100 µM | > 100 µM | – | – | – | – | – | –

From PubChem BioAssay (NCI)
